# Biological target: human orexin 2 receptor (Homo sapiens (Human), UniProt O43614)
# Experiment: Human orexin 2 receptor radioligand binding ([3H]-EMPA competition)
# Details: HEK293 stably expressing human orexin 2 receptor; 2 nM [3H]-EMPA; averages of 2-20 runs; read-out: hOX2 Ki
# Method: The in vitro affinity of the compounds of the invention for the rat/human orexin 1 and human orexin 2 receptors was determined by competitive radioligand binding using [^3H](1-(5-(2-fluoro-phenyl)-2-methyl-thiazol-4-yl)-1-((S)-2-(5-phenyl-(1,3,4)oxadiazol-2-ylmethyl)-pyrrolidin-1-yl)-methanone) (Langmead et al., 2004) and [^3H]EMPA (n-ethyl-2[96-methoxy-pyridin-3-yl)-(toluene-2-sulfonyl)-amino]-N-pyridin-3-ylmethyl acetamide), respectively (Langmead et al., 2004, British Journal of Pharmacology 141:340-346; Malherbe et al., 2004, British Journal of Pharmacology 156:1326-41).
# Data are analyzed using pc-Sandy macro and graphed on Graphpad Prism 5. For analysis, each concentration point is averaged from triplicate values and the averaged values are plotted on Graphpad Prism. The IC50 was determined by applying the following equation (GraphPad Prism 5.0, San Diego) for one site competition where X=log (concentration) and Y=specific binding. Top denotes the total [^3H]— (1-(5-(2-fluoro-phenyl)-2-methyl-thiazol-4-yl)-1-((S)-2-(5-phenyl-(1,3,4)oxadiazol-2-ylmethyl)-pyrrolidin-1-yl)-methanone) binding, bottom denotes the nonspecific [^3H]— (1-(5-(2-fluoro-phenyl)-2-methyl-thiazol-4-yl)-1-((S)-2-(5-phenyl-(1,3,4)oxadiazol-2-ylmethyl)-pyrrolidin-1-yl)-methanone) binding. Graphpad Prism calculates Ki value from IC50 and the pre-determined Kd values for [^3H]— (1-(5-(2-fluoro-phenyl)-2-methyl-thiazol-4-yl)-1-((S)-2-(5-phenyl-(1,3,4)oxadiazol-2-ylmethyl)-pyrrolidin-1-yl)-methanone) and [^3H]-EMPA. The Ki for each compound is then uploaded into 3DX. Each run comprises individual compounds in triplicate. The data in Table 1 and Table 2 represent averages from between 2-20 runs
# Human Orexin 2 Receptor Radioligand Binding Studies
# HEK293 stably expressing human orexin 2 receptor (Genebank accession number NM_001526) were grown to confluency in DMEM (Hyclone, cat # SH30022), 10% FBS, 1× Pen/Strep, 1× NaPyruvate, 10 mM HEPES, 600 μg/ml G418 media on 150 cm^2 tissue culture plates, washed with 5 mM EDTA in PBS (HyClone Dulbecco's Phosphate Buffered Saline 1× with Calcium and Magnesium, Cat # SH30264.01, hereafter referred to simply as PBS) and scraped into 50 ml tubes. After centrifugation (2K×G, 5 min at 4° C.), the supernatant was aspirated and the pellets frozen and stored at −80° C. Cells were resuspended in PBS in the presence of 1 tablet of protease inhibitor cocktail (Roche, Cat. #11836145001) per 50 mL. […] Compounds were solubilized in 100% DMSO (Acros Organics, Cat. #61042-1000) and tested over a range of 7 concentration (from 0.1 nM to 10 μM). The final concentration of DMSO in the reactions is equal to or less than 0.1%. Total and nonspecific binding was determined in the absence and presence of 10 μM almorexant. The total volume of each reaction is 200 μL (20 μL of diluted compounds, 80 μL of [^3H]-EMPA diluted in PBS and 100 μL of the cell suspension). Reactions were run for 60 min at room temperature and terminated by filtration through GF/C filter plates (PerkinElmer, Cat. #6005174) presoaked in 0.3% polyethylenimine using the cell harvester (PerkinElmer Filtermate). The plates were washed 3 times by aspirating 30 ml PBS through the plates. Plates were dried in 55° C. oven for 60 min, scintillation fluid was added, and the radioactivity was counted on a Topcount (Packard).
# Chain of human orexin 2 receptor (O43614 whole entry): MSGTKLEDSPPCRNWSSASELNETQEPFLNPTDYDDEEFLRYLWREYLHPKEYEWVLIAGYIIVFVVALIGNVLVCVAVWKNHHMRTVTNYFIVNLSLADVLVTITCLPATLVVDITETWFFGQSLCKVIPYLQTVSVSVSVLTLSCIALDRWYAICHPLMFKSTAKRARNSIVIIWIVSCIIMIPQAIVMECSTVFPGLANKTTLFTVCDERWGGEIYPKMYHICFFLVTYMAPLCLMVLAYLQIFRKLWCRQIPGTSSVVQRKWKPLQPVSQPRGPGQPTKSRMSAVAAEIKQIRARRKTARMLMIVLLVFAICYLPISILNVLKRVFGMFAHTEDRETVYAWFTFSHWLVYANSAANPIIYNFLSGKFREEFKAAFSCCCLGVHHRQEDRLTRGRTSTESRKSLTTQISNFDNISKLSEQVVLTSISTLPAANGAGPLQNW
row,SMILES,Ki
1,"CC1C2CC(Nc3cnc(C(F)(F)F)cn3)C(C2)N1C(=O)c1ccccc1-n1nccn1 (racemic) [Example 5, (R/S)-(2-(2H-1,2,3-triazol-2-yl)phenyl)(3-methyl-6-((5-(trifluoromethyl)pyrazin-2-yl)amino)-2-azabicyclo[2.2.1]heptan-2-yl)methanone]",278 nM
2,"CC1C2CC(Oc3ccc(C(F)(F)F)cn3)C(C2)N1C(=O)c1ncccc1-n1nccn1 (racemic) [Example 9, (R/S)-(3-(2H-1,2,3-triazol-2-yl)pyridin-2-yl)(3-methyl-6-((5-(trifluoromethyl)pyridin-2-yl)oxy)-2-azabicyclo[2.2.1]heptan-2-yl)methanone]",3700 nM
3,"Cc1cnc(C(=O)N2C(C)C3CC(Oc4ccc(C(F)(F)F)cn4)C2C3)c(-n2nccn2)c1 (racemic) [Example 11, (R/S)-(5-methyl-3-(2H-1,2,3-triazol-2-yl)pyridin-2-yl)(3-methyl-6-((5-(trifluoromethyl)pyridin-2-yl)oxy)-2-azabicyclo[2.2.1]heptan-2-yl)methanone]",2100 nM
4,"CCOc1ccc(C)nc1C(=O)N1C(C)C2CC(Oc3ccc(C(F)(F)F)cn3)C1C2 (racemic) [Example 13, (R/S)-(3-ethoxy-6-methylpyridin-2-yl)(3-methyl-6-((5-(trifluoromethyl)pyridin-2-yl)oxy)-2-azabicyclo[2.2.1]heptan-2-yl)methanone]",1600 nM
5,"CC1C2CC(Oc3ccc(C(F)(F)F)cn3)C(C2)N1C(=O)c1cc(F)ccc1-c1ncccn1 (racemic) [Example 18, (R/S)-(5-fluoro-2-(pyrimidin-2-yl)phenyl)(−3-methyl-6-((5-(trifluoromethyl)pyridin-2-yl)oxy)-2-azabicyclo[2.2.1]heptan-2-yl)methanone]",1600 nM
6,"CC1C2CC(Oc3ccc(C(F)(F)F)cn3)C(C2)N1C(=O)c1cccc(F)c1-c1ncc(F)cn1 (racemic) [Example 20, (R/S)-(3-fluoro-2-(5-fluoropyrimidin-2-yl)phenyl)(3-methyl-6-((5-(trifluoromethyl)pyridin-2-yl)oxy)-2-azabicyclo[2.2.1]heptan-2-yl)methanone]",3100 nM
7,"Cc1cnc(C(=O)N2C(C)C3CC(Nc4ccc(C(F)(F)F)cn4)C2C3)c(-n2nccn2)c1 (racemic) [Example 61, (R/S)-(5-methyl-3-(2H-1,2,3-triazol-2-yl)pyridin-2-yl)(3-methyl-6-((5-(trifluoromethyl)pyridin-2-yl)amino)-2-azabicyclo[2.2.1]heptan-2-yl)methanone]",585 nM
8,"CC1C2CC(Nc3cnc(C(F)(F)F)cn3)C(C2)N1C(=O)c1ccccc1-n1nccn1 (racemic) [Example 68, (R/S)-(2-(2H-1,2,3-triazol-2-yl)phenyl)(3-methyl-6-((5-(trifluoromethyl)pyrazin-2-yl)amino)-2-azabicyclo[2.2.1]heptan-2-yl)methanone]",625 nM
9,Cc1ccc(-n2nccn2)c(C(=O)N2C(CF)C3CC(Oc4ccc(C(F)(F)F)cn4)C2C3)n1 (racemic) [Example 70],2000 nM
10,Cc1cnc(-n2nccn2)c(C(=O)N2C(CF)C3CC(Oc4ccc(C(F)(F)F)cn4)C2C3)c1 (racemic) [Example 72],> 10000 nM
11,"O=C(c1ccccc1-n1nccn1)N1C(CF)C2CC(Oc3ccc(C(F)(F)F)cn3)C1C2 (racemic) [Example 73, (R/S)-(2-(2H-1,2,3-triazol-2-yl)phenyl)(3-(fluoromethyl)-6-((5-(trifluoromethyl)pyridin-2-yl)oxy)-2-azabicyclo[2.2.1]heptan-2-yl)methanone]",2000 nM
12,"Cc1ccc(-n2nccn2)c(C(=O)N2C(CC(C)C)C3CC(Oc4ccc(C(F)(F)F)cn4)C2C3)n1 (racemic) [Example 210, (R/S)-[2-isobutyl-5-[[5-(trifluoromethyl)-2-pyridyl]oxy]-3-azabicyclo[2.2.1]heptan-3-yl]-[6-methyl-3-(triazol-2-yl)-2-pyridyl]methanone]",1500 nM
13,"CC(C)CC1C2CC(Oc3ccc(C(F)(F)F)cn3)C(C2)N1C(=O)c1cccc(F)c1-c1ncccn1 (racemic) [Example 211, (R/S)-(3-fluoro-2-pyrimidin-2-yl-phenyl)-[2-isobutyl-5-[[5-(trifluoromethyl)-2-pyridyl]oxy]-3-azabicyclo[2.2.1]heptan-3-yl]methanone]",3300 nM
14,"CCC1C2CC(Oc3ccc(C(F)(F)F)cn3)C(C2)N1C(=O)c1ccccc1-c1ncccn1 (racemic) [Example 214, (R/S)-[2-ethyl-5-[[5-(trifluoromethyl)-2-pyridyl]oxy]-3-azabicyclo[2.2.1]heptan-3-yl]-(2-pyrimidin-2-ylphenyl)methanone]",316 nM
15,"C[C@@H]1[C@H]2C[C@@H](Oc3ccc(C(F)(F)F)cn3)[C@H](C2)N1C(=O)c1ncccc1-n1nccn1 (relative stereo) [Example 23, (3-(2H-1,2,3-triazol-2-yl)pyridin-2-yl)((1S*,3R*,4R*,6R*)-3-methyl-6-((5-(trifluoromethyl)pyridin-2-yl)oxy)-2-azabicyclo[2.2.1]heptan-2-yl)methanone]",2400 nM
16,"C[C@@H]1[C@H]2C[C@@H](Oc3ccc(C(F)(F)F)cn3)[C@H](C2)N1C(=O)c1c(F)cccc1-n1nccn1 (relative stereo) [Example 30, (2-fluoro-6-(2H-1,2,3-triazol-2-yl)phenyl)((1S*,3R*,4R*,6R*)-3-methyl-6-((5-(trifluoromethyl)pyridin-2-yl)oxy)-2-azabicyclo[2.2.1]heptan-2-yl)methanone]",689 nM
17,"C[C@@H]1[C@H]2C[C@@H](Oc3ccc(C(F)(F)F)cn3)[C@H](C2)N1C(=O)c1ccccc1-c1ncccn1 (relative stereo) [Example 33, ((1S*,3R*,4R*,6R*)-3-methyl-6-((5-(trifluoromethyl)pyridin-2-yl)oxy)-2-azabicyclo[2.2.1]heptan-2-yl)(2-(pyrimidin-2-yl)phenyl)methanone]",602 nM
18,"Cc1cnc(C(=O)N2[C@H](C)[C@H]3C[C@@H](Oc4cnc(C(F)(F)F)cn4)[C@@H]2C3)c(-n2nccn2)c1 (relative stereo) [Example 48, (5-methyl-3-(2H-1,2,3-triazol-2-yl)pyridin-2-yl)((1S*,3R*,4R*,6R*)-3-methyl-6-((5-(trifluoromethyl)pyrazin-2-yl)oxy)-2-azabicyclo[2.2.1]heptan-2-yl)methanone]",> 10000 nM
19,"Cc1ccc(C(=O)N2[C@H](C)[C@H]3C[C@@H](Oc4cnc(C(F)(F)F)cn4)[C@@H]2C3)c(-n2nccn2)n1 (relative stereo) [Example 49, (6-methyl-2-(2H-1,2,3-triazol-2-yl)pyridin-3-yl)((1S*,3R*,4R*,6R*)-3-methyl-6-((5-(trifluoromethyl)pyrazin-2-yl)oxy)-2-azabicyclo[2.2.1]heptan-2-yl)methanone]",> 10000 nM
20,"C[C@@H]1[C@H]2C[C@@H](Oc3cnc(C(F)(F)F)cn3)[C@H](C2)N1C(=O)c1ccc(F)cc1-n1nccn1 (relative stereo) [Example 53, (4-fluoro-2-(2H-1,2,3-triazol-2-yl)phenyl)((1S*,3R*,4R*,6R*)-3-methyl-6-((5-(trifluoromethyl)pyrazin-2-yl)oxy)-2-azabicyclo[2.2.1]heptan-2-yl)methanone]",7600 nM
21,"CCOc1ccc(C)nc1C(=O)N1[C@H](C)[C@H]2C[C@@H](Oc3cnc(C(F)(F)F)cn3)[C@@H]1C2 (relative stereo) [Example 56, (3-ethoxy-6-methylpyridin-2-yl)((1S*,3R*,4R*,6R*)-3-methyl-6-((5-(trifluoromethyl)pyrazin-2-yl)oxy)-2-azabicyclo[2.2.1]heptan-2-yl)methanone]",7000 nM
